These results are taken from patent US8703791B2, “3-carboxypropyl-aminotetralin derivatives and related compounds as mu opioid receptor antagonists” (Theravance, Inc., priority 2007, dated 2014).

Read-outs that look alike come from different tables or passages of the source.

Assay [1] has as its target T1, human mu opioid receptor (Homo sapiens, UniProt P35372). Put plainly: Human mu [35S]GTPγS nucleotide exchange assay in membranes from CHO-K1 cells. The settings on record: read-out: intrinsic activity (IA), bound [35S]GTPγS relative to DAMGO (IA=100). It is filed as biochemical. For orientation: Binding of GTPγS marks nucleotide exchange on a G protein.
The subject of assay [2] is loperamide-induced delayed gastric emptying. The assay can be described thus: Rat gastric emptying assay, reversal of loperamide-induced delayed gastric emptying. It is filed as in vivo. The settings on record: administered orally, loperamide 1 mg/kg subcutaneous.
Assay [3] has as its target T1, human mu opioid receptor. The assay can be described thus: Radioligand binding assay, [3H]-Diprenorphine displacement, human mu opioid receptor.
[4] abbreviates: expressed as a percentage of activation by DAMGO.

T1 sequence (P35372 whole entry): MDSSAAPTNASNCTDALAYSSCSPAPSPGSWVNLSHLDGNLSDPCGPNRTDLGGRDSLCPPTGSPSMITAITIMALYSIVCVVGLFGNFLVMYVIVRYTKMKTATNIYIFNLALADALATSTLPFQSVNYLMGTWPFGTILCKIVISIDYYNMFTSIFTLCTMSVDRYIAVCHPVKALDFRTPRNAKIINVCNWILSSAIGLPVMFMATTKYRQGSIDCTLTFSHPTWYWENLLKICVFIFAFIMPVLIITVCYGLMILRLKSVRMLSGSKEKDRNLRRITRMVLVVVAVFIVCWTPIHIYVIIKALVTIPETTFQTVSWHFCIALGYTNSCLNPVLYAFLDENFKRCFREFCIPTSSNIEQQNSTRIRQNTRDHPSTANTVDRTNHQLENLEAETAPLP

Take `CCC1(CC)c2cc(C(N)=O)ccc2CC(OC)[C@H]1NCC[C@@H](CC1CCCCC1)C(=O)OC` (mixture of isomers) [Example 6, (R)-4-((2S,3SR)-7-Carbamoyl-1,1-diethyl-3-methoxy-1,2,3,4-tetrahydro-naphthalen-2-ylamino)-2-cyclohexylmethyl-butyric acid methyl ester]: the Emax on human mu opioid receptor [1] (setting [4]) was determined as 19%.

In the case of `CCC1(CC)c2cc(C(N)=O)ccc2C[C@H](OC)[C@H]1NCC[C@H](CC1CCCCC1)C(=O)O` [Example 1, (S)-4-((2S,3S)-7-Carbamoyl-1,1-diethyl-3-methoxy-1,2,3,4-tetrahydro-naphthalen-2-ylamino)-2-cyclohexylmethyl-butyric acid], the “ID50, dose required for 50% reversal of the effects of loperamide” value (“ID50, dose required for 50% reversal” for short) in assay [2] was determined as 0.09 mg/kg.

As to `CCC1(CC)c2cc(C(N)=O)ccc2C[C@H](OC)[C@H]1NCC[C@H](CC1CCCCC1)C(=O)OC` [Example 2, (S)-4-((2S,3S)-7-Carbamoyl-1,1-diethyl-3-methoxy-1,2,3,4-tetrahydro-naphthalen-2-ylamino)-2-cyclohexylmethyl-butyric acid methyl ester], the Emax at human mu opioid receptor [1] (setting [4]) is -5%.

As for `CCC1(CC)c2cc(C(N)=O)ccc2C[C@@H](OC)[C@@H]1NCC[C@@H](CC1CCCCC1)C(=O)OC` [Example 5, (R)-4-((2R,3R)-7-Carbamoyl-1,1-diethyl-3-methoxy-1,2,3,4-tetrahydro-naphthalen-2-ylamino)-2-cyclohexylmethyl-butyric acid methyl ester], the Emax on human mu opioid receptor [1] (setting [4]) was determined as 17%.

Turning to `CCC1(CC)c2cc(C(N)=O)ccc2C[C@H](OC)[C@H]1NCC[C@H](CC(C)C)C(=O)OC` [Example 7-A, (S)-2-[2-((2S,3S)-7-Carbamoyl-1,1-diethyl-3-methoxy-1,2,3,4-tetrahydro-naphthalen-2-ylamino)-ethyl]-4-methyl-pentanoic acid methyl ester], the Emax on human mu opioid receptor [1] was found to be 8%.

On to `CCCCC[C@@H](CCN[C@@H]1[C@@H](OC)Cc2ccc(C(N)=O)cc2C1(CC)CC)C(=O)O` [Example 9, (S)-2-[2-((2S,3S)-7-Carbamoyl-1,1-diethyl-3-methoxy-1,2,3,4-tetrahydro-naphthalen-2-ylamino)-ethyl]-heptanoic acid], for which, at human mu opioid receptor [1] (setting [4]), the Emax was -2%. In addition, at human mu opioid receptor [3] ([3H]-Diprenorphine 0.5 nM, CHO-K1 membranes, read-out: pKi at the human mu opioid receptor (converted)), the Ki is 0.631 nM. Further, in assay [2], the “ID50, dose required for 50% reversal” value came to 0.10 mg/kg.

Consider `CCC1(CC)c2cc(C(N)=O)ccc2C[C@H](OC)[C@H]1NCC[C@@H](CC1CCCCC1)C(=O)O` [Example 10-G, (R)-4-((2S,3S)-7-Carbamoyl-1,1-diethyl-3-methoxy-1,2,3,4-tetrahydro-naphthalen-2-ylamino)-2-cyclohexylmethyl-butyric acid], for which, on human mu opioid receptor [1], the Emax was determined as 7%. This compound also had a Ki on human mu opioid receptor [3] of 0.251 nM. In addition, the “ID50, dose required for 50% reversal” value in assay [2] was found to be 0.12 mg/kg.

As for `CCC1(CC)c2cc(O)ccc2C[C@H](OC)[C@H]1NCC[C@H](CC1CCCCC1)C(=O)O` [Example 12, (S)-2-Cyclohexylmethyl-4-((2S,3S)-1,1-diethyl-7-hydroxy-3-methoxy-1,2,3,4-tetrahydro-naphthalen-2-ylamino)-butyric acid], the Emax on human mu opioid receptor [1] is -5%. Further, on human mu opioid receptor [3], the Ki was 0.2 nM. In addition, the “ID50, dose required for 50% reversal” value in assay [2] came out at 0.05 mg/kg.
